Biological target: T1, recombinant human mGluR2 (Homo sapiens, UniProt Q14416)
T1 construct: expressed in transfected cells
Test: FLIPR Ca2+ mobilization assay, mGluR2 potentiation
Assay type: cell-based
Settings: CHO dhfr- cells expressing human mGluR2 and Gα16, EC20 concentration of glutamate (900 nM)
Protocol: Potencies are determined as follows. The compounds of the present invention may be tested in a fluorescence laser imaging plate reader (FLIPR) based assay. This assay is a common functional assay to monitor Ca^2+ mobilization in whole cells expressing recombinant receptor coupled with a promiscuous G-protein. CHO dhfr-cells stably expressing recombinant human mGluR2 and Gα16 loaded with Fluo-4 AM (Invitrogen, Carlsbad Calif.) are treated with varying concentrations of compounds and the Ca^2+ response is monitored on a FLIPR384 (Molecular Devices, Sunnydale Calif.) for agonist activity. The potentiation response is monitored after a subsequent addition of an EC20 concentration of glutamate (900 nM). The maximum calcium response at each concentration of compound for agonism or potentiation are plotted as dose responses curves fitted with a four parameters logistic equation giving EC50 and Hill coefficient using the iterative non linear curve fitting software program.

T1 sequence (Q14416 19-872): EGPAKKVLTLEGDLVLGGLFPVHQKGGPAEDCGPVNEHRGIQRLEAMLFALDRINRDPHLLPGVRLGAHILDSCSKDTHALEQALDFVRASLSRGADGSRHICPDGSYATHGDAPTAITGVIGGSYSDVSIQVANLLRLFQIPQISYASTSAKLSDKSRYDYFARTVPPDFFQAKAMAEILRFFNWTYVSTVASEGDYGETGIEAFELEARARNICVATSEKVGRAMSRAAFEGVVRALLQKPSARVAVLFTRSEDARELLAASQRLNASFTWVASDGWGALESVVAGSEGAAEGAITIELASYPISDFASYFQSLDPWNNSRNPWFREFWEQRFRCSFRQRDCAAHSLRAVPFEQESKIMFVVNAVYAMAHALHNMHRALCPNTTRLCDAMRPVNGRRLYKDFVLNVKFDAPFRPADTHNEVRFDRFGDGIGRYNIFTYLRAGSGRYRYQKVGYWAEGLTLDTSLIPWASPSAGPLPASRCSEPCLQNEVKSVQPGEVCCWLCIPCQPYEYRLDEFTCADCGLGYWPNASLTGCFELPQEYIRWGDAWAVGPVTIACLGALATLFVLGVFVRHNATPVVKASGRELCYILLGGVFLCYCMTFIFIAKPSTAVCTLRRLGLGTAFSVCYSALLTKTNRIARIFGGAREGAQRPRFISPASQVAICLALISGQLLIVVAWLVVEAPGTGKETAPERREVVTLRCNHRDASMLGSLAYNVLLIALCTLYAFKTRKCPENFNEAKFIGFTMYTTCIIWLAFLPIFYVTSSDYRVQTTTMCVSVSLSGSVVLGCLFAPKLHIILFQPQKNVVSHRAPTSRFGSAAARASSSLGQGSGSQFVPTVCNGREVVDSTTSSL

In order of rising EC50:
1. FC(F)(F)c1c(C#Cc2cccnc2)ccc2c1nnn2CC1CC1 [Example 33, 1-(Cyclopropylmethyl)-5-(pyridin-3-ylethynyl)-4-(trifluoromethyl)-1H-benzotriazole]  4.8 nM
2. FC(F)(F)c1c(C#Cc2ccncc2)ccc2c1nnn2CC1CC1 [Example 35, 1-(cyclopropylmethyl)-5-(pyridin-4-ylethynyl)-4-(trifluoromethyl)-1H-benzotriazole]  12 nM
3. Nc1cc(C#Cc2ccc3c(nnn3CC3CC3)c2Cl)ccn1 [Example 29, 4-{[4-chloro-1-(cyclopropylmethyl)-1H-benzotriazol-5-yl]ethynyl}pyridin-2-amine]  31 nM
4. Clc1c(C#Cc2cccnc2)ccc2c1nnn2CC1CC1 [Example 7, 4-chloro-1-(cyclopropylmethyl)-5-(pyridin-3-ylethynyl)-1H-benzotriazole]  34 nM
5. FC(F)(F)c1c(C#Cc2ccccc2)ccc2c1nnn2CC1CC1 [Example 34, 1-(cyclopropylmethyl)-5-(phenylethynyl)-4-(trifluoromethyl)-1H-benzotriazole]  34 nM
6. NC(=O)c1cncc(C#Cc2ccc3c(nnn3CC3CC3)c2Cl)c1 [Example 24, 5-{[4-chloro-1-(cyclopropylmethyl)-1H-benzotriazol-5-yl]ethynyl}pyridine-3-carboxamide]  42 nM
7. Cc1cc(C#Cc2ccc3c(nnn3CC3CC3)c2Cl)ccn1 [Example 27, 4-chloro-1-(cyclopropylmethyl)-5-[(2-methylpyridin-4-yl)ethynyl]-1H-benzotriazole]  43 nM
8. Cc1ccncc1C#Cc1ccc2c(nnn2CC2CC2)c1Cl [Example 6, 4-Chloro-1-(cyclopropylmethyl)-5-[(4-methylpyridin-3-yl)ethynyl]-1H-benzotriazole]  50 nM
9. COc1cncc(C#Cc2ccc3c(nnn3CC3CC3)c2Cl)c1 [Example 20, 4-chloro-1-(cyclopropylmethyl)-5-[(5-methoxypyridin-3-yl)ethynyl]-1H-benzotriazole]  50 nM
10. Cc1ncccc1C#Cc1ccc2c(nnn2CC2CC2)c1Cl [Example 16, 4-chloro-1-(cyclopropylmethyl)-5-[(2-methylpyridin-3-yl)ethynyl]-1H-benzotriazole]  50 nM
11. O=Cc1cncc(C#Cc2ccc3c(nnn3CC3CC3)c2Cl)c1 [Example 15, 5-{[4-chloro-1-(cyclopropylmethyl)-1H-benzotriazol-5-yl]ethynyl}pyridine-3-carbaldehyde]  56 nM
12. Cc1cncc(C#Cc2ccc3c(nnn3CC3CC3)c2Cl)c1 [Example 18, 4-chloro-1-(cyclopropylmethyl)-5-[(5-methylpyridin-3-yl)ethynyl]-1H-benzotriazole]  57 nM
13. OCc1cncc(C#Cc2ccc3c(nnn3CC3CC3)c2Cl)c1 [Example 22, (5-{[4-chloro-1-(cyclopropylmethyl)-1H-benzotriazol-5-yl]ethynyl}pyridin-3-yl)methanol]  57 nM
14. Clc1c(C#Cc2ccncc2)ccc2c1nnn2CC1CC1 [Example 8, 4-chloro-1-(cyclopropylmethyl)-5-(pyridin-4-ylethynyl)-1H-benzotriazole]  64 nM
15. Fc1cncc(C#Cc2ccc3c(nnn3CC3CC3)c2Cl)c1 [Example 21, 4-chloro-1-(cyclopropylmethyl)-5-[(5-fluoropyridin-3-yl)ethynyl]-1H-benzotriazole]  76 nM
16. Fc1cc(C#Cc2ccc3c(nnn3CC3CC3)c2Cl)ccn1 [Example 25, 4-chloro-1-(cyclopropylmethyl)-5-[(2-fluoropyridin-4-yl)ethynyl]-1H-benzotriazole]  77 nM
17. Clc1c(C#Cc2cnccn2)ccc2c1nnn2CC1CC1 [Example 10, 4-chloro-1-(cyclopropylmethyl)-5-(pyrazin-2-ylethynyl)-1H-benzotriazole]  80 nM
18. Clc1c(C#Cc2ccccn2)ccc2c1nnn2CC1CC1 [Example 9, 4-chloro-1-(cyclopropylmethyl)-5-(pyridin-2-ylethynyl)-1H-benzotriazole]  85 nM
19. Nc1cncc(C#Cc2ccc3c(nnn3CC3CC3)c2Cl)c1 [Example 23, 5-{[4-chloro-1-(cyclopropylmethyl)-1H-benzotriazol-5-yl]ethynyl}pyridin-3-amine]  98 nM
20. CC(C)(C)Cn1nnc2c(Br)c(C#CC3CCN(C(=O)OC(C)(C)C)CC3)ccc21 [Example 1, tert-Butyl 4-{[4-bromo-1-(2,2-dimethylpropyl)-1H-benzotriazol-5-yl]ethynyl}piperidine-1-carboxylate]  100 nM
21. CC(C)(C)Cn1nnc2c(Br)c(C#CC3CCN(CC(F)(F)F)CC3)ccc21 [Example 5, 4-bromo-1-(2,2-dimethylpropyl)-5-{[1-(2,2,2-trifluoroethyl)piperidin-4-yl]ethynyl}-1H-benzotriazole]  123 nM
22. Cc1ccc(C#Cc2ccc3c(nnn3CC3CC3)c2Cl)cn1 [Example 17, 4-chloro-1-(cyclopropylmethyl)-5-[(6-methylpyridin-3-yl)ethynyl]-1H-benzotriazole]  140 nM
23. CN1C(=O)CN(CCCC#Cc2ccc3c(nnn3CC3CC3)c2Cl)C1=O [Example 32, 1-{5-[4-chloro-1-(cyclopropylmethyl)-1H-benzotriazol-5-yl]pent-4-yn-1-yl}-3-methylimidazolidine-2,4-dione]  153 nM
24. OCCCC#Cc1ccc2c(nnn2CC2CC2)c1Cl [Example 14, 5-[4-chloro-1-(cyclopropylmethyl)-1H-benzotriazol-5-yl]pent-4-yn-1-ol]  180 nM
25. Clc1c(C#Cc2ccnnc2)ccc2c1nnn2CC1CC1 [Example 11, 4-chloro-1-(cyclopropylmethyl)-5-(pyridazin-4-ylethynyl)-1H-benzotriazole]  203 nM
26. COc1cc(C#Cc2ccc3c(nnn3CC3CC3)c2Cl)ccn1 [Example 28, 4-chloro-1-(cyclopropylmethyl)-5-[(2-methoxypyridin-4-yl)ethynyl]-1H-benzotriazole]  227 nM
27. C=CC#Cc1ccc2c(nnn2CC2CC2)c1Cl [Example 31, 5-but-3-en-1-yn-1-yl-4-chloro-1-(cyclopropylmethyl)-1H-benzotriazole]  282 nM
28. Clc1cncc(C#Cc2ccc3c(nnn3CC3CC3)c2Cl)c1 [Example 19, 4-chloro-5-[(5-chloropyridin-3-yl)ethynyl]-1-(cyclopropylmethyl)-1H-benzotriazole]  292 nM
29. Clc1cc(C#Cc2ccc3c(nnn3CC3CC3)c2Cl)ccn1 [Example 26, 4-chloro-5-[(2-chloropyridin-4-yl)ethynyl]-1-(cyclopropylmethyl)-1H-benzotriazole]  299 nM
30. OCCC#Cc1ccc2c(nnn2CC2CC2)c1Cl [Example 12, 4-[4-chloro-1-(cyclopropylmethyl)-1H-benzotriazol-5-yl]but-3-yn-1-ol]  388 nM
31. CC(C)(C)OC(=O)N1CCC(F)(C#Cc2ccc3c(nnn3CC3CC3)c2Br)CC1 [Example 3]  414 nM
32. CN1C(=O)CN(CC#Cc2ccc3c(nnn3CC3CC3)c2Cl)C1=O [Example 30, 1-{3-[4-Chloro-1-(cyclopropylmethyl)-1H-benzotriazol-5-yl]prop-2-yn-1-yl}-3-methylimidazolidine-2,4-dione]  415 nM
33. OCC#Cc1ccc2c(nnn2CC2CC2)c1Cl [Example 13, 3-[4-chloro-1-(cyclopropylmethyl)-1H-benzotriazol-5-yl]prop-2-yn-1-ol]  576 nM
34. FC1(C#Cc2ccc3c(nnn3CC3CC3)c2Br)CCNCC1 [Example 4, 4-bromo-1-(cyclopropylmethyl)-5-[(4-fluoropiperidin-4-yl)ethynyl]-1H-benzotriazole]  1220 nM
35. CC(C)(C)Cn1nnc2c(Br)c(C#CC3CCNCC3)ccc21 [Example 2, 4-bromo-1-(2,2-dimethylpropyl)-5-(piperidin-4-ylethynyl)-1H-benzotriazole]  2710 nM

From patent publication US8772276B2, “Alkyne benzotriazole derivatives” (Merck Sharp & Dohme Corp., priority 2011, dated 2014)
